Reference: patent publication US20030053966A1, “Insoluble organic UV screening agents of aryl vinylene ketone type, and cosmetic use thereof” (priority 2001, published 2003)

Legend:
[1] = UV absorption of the compound in solution; format: physicochemical
[2] = solution in DMSO/CH2Cl2, at λmax

Work on `CCNS(=O)(=O)CC12CCC(C(=Cc3ccc(C=C4C(=O)C5(CS(=O)(=O)NCC)CCC4C5(C)C)cc3)C1=O)C2(C)C` [Example 1, 1,4-phenylenebis(ethyl 3,3′-methylidenecamphor-10,10′-sulphonamide)] yielded a λmax ([1]; solution in DMSO/CH2Cl2) of 342 nm, an E1% [1, 2] of 654 and a εmax [1, 2] of 40350.
With `CCCCC(CC)CNS(=O)(=O)CC12CCC(C(=Cc3ccc(C=C4C(=O)C5(CS(=O)(=O)NCC(CC)CCCC)CCC4C5(C)C)cc3)C1=O)C2(C)C` (stereo not drawn) [Example 2, 1,4-phenylenebis(2-ethylhexyl 3,3′-methylidenecamphor-10,10′-sulphonamide)] the λmax ([1]; solution in CH2Cl2) was 342 nm, the E1% ([1]; solution in CH2Cl2, at λmax) was 522 and the εmax ([1]; solution in CH2Cl2, at λmax) was 41 000.
`CC12CCC(/C(=C\c3cccc(/C=C4/C(=O)C5(C)CCC4C5(C)C)c3)C1=O)C2(C)C` [Example 3, 1,3-phenylenebis(3-methylidenecamphor)] showed a melting point of 152 °C.
Molecule `CC12CCC(/C(=C\c3ccc(/C=C4/C(=O)C5(C)CCC4C5(C)C)cc3)C1=O)C2(C)C` [Example 5, 1,4-phenylenebis(3-methylidenecamphor)] has a melting point of 234 °C.
For `Cc1c(C)c(C=C2C(=O)C3(C)CCC2C3(C)C)c(C)c(C)c1C=C1C(=O)C2(C)CCC1C2(C)C` [Example 6, (2,3,5,6-tetramethyl)-1,4-phenylenebis-(3-methylidenecamphor)], the λmax ([1]; solution in CH2Cl3) was 286 nm, the E1% ([1]; solution, at λmax) was 270 and the εmax ([1]; solution, at λmax) was 12 200.
Molecule `C[Si](C)(C)CCCOc1ccc(/C=C2\CC/C(=C\c3ccc(OCCC[Si](C)(C)C)cc3)C2=O)cc1` [Example 8, 2,5-bis[4-(3-trimethylsilanylpropyloxy)-benzylidene]cyclopentanone] has a melting point of 205 to 207 °C, a λmax ([1]; solution in CHCl3) of 391 nm and an E1% ([1]; solution in CHCl3, at λmax) of 940. For the same molecule, the εmax ([1]; solution in CHCl3, at λmax) was 49 100.
